Laboratory results reported in patent US7420083B2, “Substituted aryloximes” (Wyeth, priority 2003, dated 2008).

Experiments:
[1] = target: T1, recombinant human plasminogen activator inhibitor-1 (PAI-1) (Homo sapiens, UniProt P05121); experiment: Screening for PAI-1 inhibition (chromogenic tPA activity assay, Spectrozyme-tPA); type: biochemical; conditions: for IC50: footnote b: IC50 determined by a modification of the Primary Screen for PAI-1 Inhibition
T1 construct: purchased Molecular Innovations, Royal Oak, Mich
T1 sequence (P05121 24-402): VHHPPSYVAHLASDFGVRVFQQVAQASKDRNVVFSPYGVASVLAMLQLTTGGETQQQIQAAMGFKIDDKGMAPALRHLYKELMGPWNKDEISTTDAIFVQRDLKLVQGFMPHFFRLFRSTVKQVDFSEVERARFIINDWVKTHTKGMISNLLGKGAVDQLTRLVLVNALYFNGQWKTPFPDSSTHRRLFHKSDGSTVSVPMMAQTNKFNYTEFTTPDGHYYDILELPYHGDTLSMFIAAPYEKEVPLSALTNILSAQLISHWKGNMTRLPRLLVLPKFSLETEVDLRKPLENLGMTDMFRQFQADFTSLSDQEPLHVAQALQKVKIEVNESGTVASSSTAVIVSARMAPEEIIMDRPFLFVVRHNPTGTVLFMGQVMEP
Procedure: Screening for PAI-1 inhibition. Test compounds are dissolved in DMSO at a final concentration of 10 mM, then diluted 100×in physiologic buffer. The inhibitory assay is initiated by the addition of the test compound (1-100 μM final concentration, maximum DMSO concentration of 0.2%) in a pH 6.6 buffer containing 140 nM recombinant human plasminogen activator inhibitor-1 (PAI-1; Molecular Innovations, Royal Oak, Mich.). Following a 1 hour incubation at room temperature, 70 nM of recombinant human tissue plasminogen activator (tPA) is added, and the combination of the test compound, PAI-1 and tPA is incubated for an additional 30 minutes. Following the second incubation, Spectrozyme-tPA (American Diagnostica, Greenwich, Conn.), a chromogenic substrate for tPA, is added and absorbance read at 405 nm at 0 and 60 minutes. Relative PAI-1 inhibition is equal to the residual tPA activity in the presence of the test compounds and PAI-1. Control treatments include the complete inhibition of tPA by PAI-1 at the molar ratio employed (2:1), and the absence of any effect of the test compound on tPA alone.

human PAI-1 = human PAI-1 (Homo sapiens, UniProt P05121); experiment: Assay for determining the IC50 of inhibition of PAI-1 (active PAI-1 bound to tPA-coated plate, 33B8 antibody detection); type: biochemical; conditions: human PAI-1 50 ng/ml, pH 7.5
Chain of human PAI-1 (P05121 24-402): as above
Procedure: Assay for determining the IC50 of inhibition of PAI-1. This assay is based upon the non-SDS dissociable interaction between tPA and active PAI-1. Assay plates are initially coated with human tPA (10 μg/ml). Test compounds are dissolved in DMSO at 10 mM, then diluted with physiologic buffer (pH 7.5) to a final concentration of 1-50 μM. The test compounds are incubated with human PAI-1 (50 ng/ml) for 15 minutes at room temperature. The tPA-coated plate is washed with a solution of 0.05% Tween 20 and 0.1% BSA, then the plate is blocked with a solution of 3% BSA. An aliquot of the test compound/PAI-1 solution is then added to the tPA-coated plate, incubated at room temperature for 1 hour, and washed. Active PAI-1 bound to the plate is assessed by adding an aliquot of a 1:1000 dilution of the 33B8 monoclonal antibody against human PAI-1, and incubating the plate at room temperature for 1 hour (Molecular Innovations, Royal Oak, Mich.). The plate is again washed, and a solution of goat anti-mouse IgG-alkaline phosphatase conjugate is added at a 1:50,000 dilution in goat serum. The plate is incubated 30 minutes at room temperature, washed, and a solution of alkaline phosphatase substrate is added. The plate is incubated 45 minutes at room temperature, and color development is determined at OD405 nm. The quantitation of active PAI-1 bound to tPA at varying concentrations of the test compound is used to determine the IC50. Results are analyzed using a logarithmic best-fit equation. The assay sensitivity is 5 ng/ml of human PAI-1 as determined from a standard curve ranging from 0-100 ng/ml.

[2] = PAI-1 inhibition at 25 μM test compound, pH 6.6 buffer, 140 nM PAI-1, 70 nM tPA

SMILES | inhibition at 25 µM [1, 2] | melting point | IC50 (human PAI-1) | IC50 [1] | % Inhibition @ 25 μM [1, 2]
CC(=NOCCCOc1ccc(CC(=O)O)cc1)c1ccc(C(C)(C)C)cc1 [Compound 1, (4-{3-[1-(4-tert-Butyl-phenyl)-ethylideneaminooxy]-propoxy}-phenyl)-acetic Acid] | 39% | 98.7 to 99.7 °C |  |  | 
CC(=NOCc1ccc(CC(=O)O)cc1)c1ccc(C(C)(C)C)cc1 [Compound 2, {4-[1-(4-tert-Butyl-phenyl)-ethylideneaminooxymethyl]-phenyl}-acetic Acid] | 30% | 148.9 to 150 °C |  |  | 
CC(C)(C)c1ccc(C=NOCc2ccc(CC(=O)O)cc2)cc1 [Compound 3, [4-(4-tert-Butyl-benzylideneaminooxymethyl]-phenyl}-acetic Acid] | 19% | 93.3 to 96.2 °C |  |  | 
CC(C)(C)c1ccc(C=NOCCCOc2ccc(CC(=O)O)cc2)cc1 [Compound 4, {4-[3-(4-tert-Butyl-benzylideneaminooxy)-propoxy]-phenyl}-acetic Acid] |  | 56.2 to 59.2 °C | 34.2 µM |  | 
C/C(=N\OCCOc1ccc(C(=O)O)c(O)c1)c1ccc(C(C)(C)C)cc1 [Compound 5, 4-{2-[({(E)-1-[4-(tert-Butyl)-phenyl]-ethylidene}amino)oxy]-ethoxy}-2-hydroxy-benzoic Acid] |  | 157.4 to 158.7 °C |  | 20.2 µM | 
CC(=NOCCOc1ccc(C(=O)O)c(OC(=O)c2ccc(C(C)(C)C)cc2)c1)c1ccccc1 [Compound 6] |  |  | 16.7 µM |  | 
CC(C)(C)c1ccc(C=NOCCOc2ccc(C(=O)O)c(O)c2)cc1 [Compound 7, 4-{2-[({[4-(tert-Butyl)phenyl]methylidene}amino)oxy]ethoxy}-2-hydroxybenzoic Acid] | 33% | 161.4 to 162.7 °C |  |  | 
CC(C)(C)c1ccc(/C=N/OCCOc2ccc(C(=O)O)c(OC(=O)c3ccc(C(F)(F)F)cc3)c2)cc1 [Compound 8, 4-{2-[({(E)-[4-(tert-Butyl)phenyl]methylidene}amino)oxy]ethoxy}-2-{[4-(trifluoromethyl)benzoyl]oxy}benzoic Acid] | 1% | 146.3 to 147.9 °C |  |  | 
COc1ccc(C(=O)Oc2cc(OCCO/N=C/c3ccc(C(C)(C)C)cc3)ccc2C(=O)O)cc1 [Compound 9, 4-{2-[({(E)-[4-(tert-Butyl)phenyl]methylidene}amino)oxy]ethoxy}-2-[(4-methoxybenzoyl)oxy]benzoic Acid] |  | 115.5 to 117.5 °C |  | 25.6 µM | 
CC(C)(C)c1ccc(/C=N/OCCOc2ccc(C(=O)O)c(OC(=O)c3ccccc3)c2)cc1 [Compound 11, 2-(Benzoyloxy)-4-{2-[({(E)-[4-(tert-butyl)phenyl]methylidene}amino)oxy]ethoxy}benzoic Acid] |  | 129.3 to 130.6 °C |  | 8.4 µM | 
C/C(=N\OCCOc1ccc(C(=O)O)cc1Cl)c1ccc(C(C)(C)C)cc1 [Compound 12, 4-{2-[({(E)-1-[4-(tert-Butyl)phenyl]ethylidene}amino)oxy]-ethoxy}-3-chloro-benzoic Acid] |  | 167.1 to 168.8 °C |  | 11.2 µM | 
C/C(=N\OCCOc1ccc(C(=O)O)c(Cl)c1)c1ccc(C(C)(C)C)cc1 [Compound 13, 4-{2-[({(E)-1-[4-(tert-Butyl)phenyl]ethylidene}amino)oxy]-ethoxy}-2-chloro-benzoic Acid] | 34% | 142.7 to 143.9 °C |  |  | 
CC(C)(C)c1ccc(C=NOCCOc2ccc(C(=O)O)c(OCc3ccc(C(F)(F)F)cc3)c2)cc1 [Compound 14, 4-{2-[({[4-(tert-Butyl)phenyl]methylidene}amino)oxy]ethoxy}-2-{[4-(trifluoromethyl)benzyl]oxy}benzoic acid] | 28% | 164.1 to 164.8 °C |  |  | 
CC(C)(C)c1ccc(/C=N/OCCCOc2ccc(CCC(=O)O)cc2)cc1 [Compound 16, 3-(4-{3-[({(E)-[4-(tert-butyl)phenyl]methylidene}amino)oxy]propoxy}phenyl)propanoic Acid] | 42% | 101.2 to 102.1 °C |  |  | 
CC(C)(C)c1ccc(C=NOCCCOc2ccc(Cc3nnn[nH]3)cc2)cc1 [Compound 17, 4-(tert-Butyl)benzaldehyde 0-{3-[4-(1H-tetraazol-5-ylmethyl)-phenoxy]-propyl}oxime] |  |  |  |  | 35%
CC(C)(C)c1ccc(/C=N/OCCCOc2ccc(C(=O)O)c(NC(=O)c3ccc(C(C)(C)C)cc3)c2)cc1 [Compound 18, 2-{[4-(tert-Butyl)benzoyl]amino}-4-{3-[({(E)-[4-(tert-butyl)phenyl]methylidene}amino)oxy]propoxy}benzoic Acid] |  | 192.3 to 193.8 °C |  | 18.5 µM | 
O=C(Nc1cc(OCCCO/N=C/c2ccc(-c3ccccc3)cc2)ccc1C(=O)O)c1ccc(C(F)(F)F)cc1 [Compound 20, 4-[3-({[(1E)-1,1′-Biphenyl-4-ylmethylidene]amino}oxy)propoxy]-2-{[4-(trifluoromethyl)benzoyl]amino}benzoic Acid] |  | 205.6 to 206.6 °C |  | 25.7 µM | 
C/C(=N\OCCCOc1ccc(C(=O)O)c(NC(=O)c2ccc(C(F)(F)F)cc2)c1)c1ccccc1 [Compound 23, 4-[3-({[(1E)-1-Phenylethylidene]amino}oxy)propoxy]-2-{[4-(trifluoromethyl)benzoyl]amino}benzoic acid] | 26% | 174.3 to 175.7 °C |  |  | 
O=C(O)c1ccc(OCCCO/N=C/c2ccc(-c3ccccc3)cc2)cc1NC(=O)c1ccccc1C(F)(F)F [Compound 26, 4-[3-({[(1E)-1,1′-biphenyl-4-ylmethylidene]amino}oxy)propoxy]-2-{[2-(trifluoromethyl)benzoyl]amino}benzoic Acid] | 24% | 170.5 to 172.5 °C |  |  | 
O=C(Nc1cc(OCCCO/N=C/c2cc(C(F)(F)F)cc(C(F)(F)F)c2)ccc1C(=O)O)c1ccc(OC(F)(F)F)cc1 [Compound 28, 4-{3-[({(1E)-[3,5-Bis (trifluoromethyl)phenyl]methylidene}amino)oxy]propoxy}-2-{[4-(trifluoromethoxy)benzoyl]amino}benzoic Acid] | 51% | 184.5 to 185.5 °C |  |  | 
O=C(Nc1cc(OCCCO/N=C/c2ccc(-c3ccccc3)cc2)ccc1C(=O)O)c1ccc(OC(F)(F)F)cc1 [Compound 29, 4-[3-({[(1E)-1,1′-Biphenyl-4-ylmethylidene]amino}oxy)propoxy]-2-{[4-(trifluoromethoxy)benzoyl]amino}benzoic Acid] | 70% | 194.5 to 195.5 °C |  |  | 
O=C(Nc1cc(OCCCO/N=C/c2ccc(C(F)(F)F)cc2)ccc1C(=O)O)c1ccc(OC(F)(F)F)cc1 [Compound 30, 2-{[4-(Trifluoromethoxy)benzoyl]amino}-4-{3-[({(1E)-[4-(trifluoromethyl)phenyl]methylidene}amino)oxy]propoxy}benzoic Acid] |  |  | 15.9 µM |  | 
CC(C)(C)c1ccc(/C=N/OCCCOc2ccc(C(=O)O)c(NC(=O)c3ccc4ccccc4c3)c2)cc1 [Compound 34, 4-[3-({[(1E)-(4-tert-Butylphenyl)methylidene]amino}oxy)propoxy]-2-(2-naphthoylamino)benzoic Acid] | 14% | 156 to 158 °C |  |  | 
CC(C)(C)c1ccc(/C=N/OCCCOc2ccc(C(=O)O)c(NC(=O)/C=C/c3ccc(-c4ccccc4)cc3)c2)cc1 [Compound 35, 2-{[(2E)-3-(1,1′-Biphenyl-4-yl)prop-2-enoyl]amino}-4-[3-({[(1E)-(4-tert-butylphenyl)methylidene]amino}oxy)propoxy]-benzoic Acid] | 16% | 169 to 171 °C |  |  | 
CC(C)(C)c1ccc(/C=N/OCCCOc2ccc(C(=O)O)c(NC(=O)c3ccc(-c4ccccc4)cc3)c2)cc1 [Compound 36, 2-[(1,1′-Biphenyl-4-ylcarbonyl)amino]-4-[3-({[(1E)-(4-tert-butylphenyl)methylidene]amino}oxy)propoxy]benzoic Acid] | 23% | 155 to 158.5 °C |  |  | 
